Data on one compound can be found in US4518597A, “Substituted benzoxazin-2-ones and pharmaceutical compositions containing them” (Dr. Karl Thomae GmbH, priority 1982, dated 1985).

Each structure is given as a SMILES string. Where only a bound is given, the exact number is not on record here.

Data set [1] relates to phosphodiesterase (PDE) from human blood platelets. As to the kind of experiment: PDE inhibition (phosphodiesterase from human blood platelets, 3H-cAMP hydrolysis). As to conditions: human platelet PDE, 1 μmol/liter 3H-cAMP, pH 7.4, 15 minutes at 37° C. It is filed as biochemical. The protocol:
cAMP is hydrolyzed to AMP by phosphodiesterase (PDE) from various sources, including blood platelets.
The phosphodiesterase used was prepared by centrifugal extraction at 10,000 g from human blood platelets which were frozen in water and then thawed.
A quantity of 0.3 ml of a mixture containing 0.1 mol/liter of […] (pH 7.4), 3 mmols/liter of magnesium chloride, 1 mmol/liter of AMP, 1 μmol/liter of ^3 H-cAMP (specific activity about 10 MBq/μmol), PDE, and the inhibitor under investigation (water in the case of the control) was incubated for 15 minutes at 37° C. […] From a comparison of the results for inhibitor and control cases, the concentration of the respective inhibitor necessary for a 50% inhibiting effect (IC50) was calculated.

In data set [2] the test system is thrombocyte aggregation. As to the kind of experiment: Antithrombotic activity: collagen-induced thrombocyte aggregation in platelet-rich plasma (Born and Cross). As to conditions: Homo sapiens, 50% change in optical density, ten minutes at 37° C. It is filed as cell-based. Here is the method: The thrombocyte aggregation is determined in platelet-rich plasma from healthy test subjects using the method of Born and Cross [J. Physiol. 170, 397 (1964)]. To inhibit coagulation, the blood is mixed with 3.14 percent of sodium citrate in a volume ratio of 1:10.
The pattern of the decrease in optical density of the platelet suspension after administration of the aggregation-initiating substance is measured photometrically and recorded. The speed of aggregation is deduced from the angle of inclination of the density curve. The point of the curve where there is the most light transmittance is used to calculate the optical density.
The quantity of collagen used is as small as possible, but sufficient to produce an irreversible reaction curve. The standard commercial collagen made by Hormonchemie of Munich is used. Before the collagen is administered, the plasma is incubated with the substance for ten minutes at 37° C.
From the measurements obtained, and EC50 is obtained graphically, relating to a 50% change in optical density by way of an inhibition of aggregation.

Data set [3] has as its system primary hemostasis. Nature of the data set: Determination of the prolongation of bleeding time in conscious mice. As to conditions: Mus musculus, 1 h, 10 mg/kg oral, one hour, as compared to a control group, read-out: Prolongation of Bleeding Time after One Hour (%). It is filed as in vivo. Here is the method: Since, in the event of injury, the first rapid cessation of bleeding is effected by the adhesion and aggregation of the thrombocytes at the vessel wall, the functioning of the thrombocytes can easily be determined by measuring the bleeding time with a standardized injury. The normal bleeding time in humans is between 1 and 3 minutes, assuming that there are sufficient intact, effective thrombocytes. If the number of thrombocytes is normal and the bleeding time is prolonged, this signifies an abnormality in the thrombocytes. This is found in some inborn errors of thrombocyte function. If, on the other hand, it is desired to prevent spontaneous aggregation of the thrombocytes and occlusion in the arterial system by drugs, successful therapy affecting the thrombocytes should prolong the bleeding time. Therefore, with use of an antithrombotic substance, a prolongation of the bleeding time is expected. Also, there should be a normal coagulation time since the plasma coagulation system is not affected.
To measure the bleeding time, 10 mg/kg of the test compounds were administered orally to conscious mice. After one hour, 0.5 mm of the tip of the tail of each mouse was cut off, and droplets of blood were gently removed with filter paper every 30 seconds. The number of drops of blood thus obtained gives a bleeding time (5 animals per experiment).
The results in the following table represent the prolongation of the bleeding time in percent as compared to a control group.

The test system of data set [4] is mice. As to the kind of experiment: Acute toxicity after oral administration of a single dose. In kind it is in vivo. As to conditions: observation period 14 days. The protocol:
The acute toxicity of the test compounds was determined, as a guide, in groups of ten mice, after oral administration of a single dose (observation period: 14 days): […]

In the case of `Cc1ccc([S+]([O-])CCCCOc2ccc3c(c2)C(C)(C)OC(=O)N3)cc1` (centres unmarked) [D, 6-[4-(4-methyl-phenylsulfinyl)-butoxy]-4,4-dimethyl-4H-3,1-benzoxazin-2-one], in data set [1], the IC50 is 210 nM. Moreover, in data set [2], the EC50 came to 330 nM. In addition, in data set [3], the change in vivo at 10 mg/kg was above 250%. For the same compound, the “Approximate Acute Toxicity” value in data set [4] (groups of ten, single oral dose) was found to be 1000 mg. In data set [4] (single oral dose 1000 mg), the animals died is listed as 0 out of 10 animals died.
